The values below come from US8618082B2, “Lupeol anti-tumor agent and uses thereof” (Wisconsin Alumni Research Foundation, priority 2004, dated 2013).

Assay [1] has as its system epidermal ODC. Briefly: TPA-induced epidermal ODC enzyme activity (14CO2 release). The note with it: for inhibition of TPA-caused induction of epidermal ODC activity: p<0.005. Type of assay: in vivo, mouse. On the procedure:
FIG. 3. Inhibitory effect of Lupeol on TPA-induced epidermal ODC activity: ODC enzyme activity was determined using 0.4 ml epidermal supernatant by measuring the release of ^14CO2 from the D, L-[^14C]ornithine. Data is represented as mean±SE of four individual values (* represents p<0.005). The epidermis from two animals was pooled for each determination.
(§1) The animals were shaved on the dorsal side of the skin, divided into four groups and treated topically on the shaved area with either 0.4 ml vehicle (acetone), or TPA (3.2 nmol/0.4 ml acetone/animal, v/v), or Lupeol (1 or 2 mg/0.2 ml acetone/animal, w/v) followed 30 min later with TPA (3.2 nmol/0.2 ml acetone/animal). Animals were sacrificed at different times point i.e. 6, 12, 24 and 48 h post TPA treatment. The epidermis was separated from the whole skin and homogenized in 0.1 M Tris-HCl buffer (pH 7.2) using a Polytron tissue homogenizer (Brinkmann Instruments, Westbury, N.Y., USA) at 100,000×g supernatant, and microsomal fractions were prepared as described earlier (Katiyar and Mukhtar, 1997). The sample of 6 h treatment group was used to assess the ODC activity as this time point has previously been shown for optimal induction of the enzyme (Katiyar er al., 1996).
ODC enzyme activity was determined using 0.4 ml epidermal supernatant by measuring the release of ^14CO2 from the D, L-[^14C] ornithine as reported earlier. (Gupta et al., 1999). The epidermis from the skin was homogenized at 4° C. in a glass-to-glass homogenizer in 10 volumes of ODC buffer [50 mM Tris-HCl buffer (pH 7.5) containing 0.1 mM EDTA, 0.1 mM dithiothreitol, 0.1 mM pyridoxal-5-phosphate, 1 mM 2-mercaptoethanol and 0.1% Tween-80]. The homogenate was centrifuged at 100,000×g at 4° C. and the supernatant was used for enzyme determination. […] The radioactivity was measured in a Beckman LS 6000 SC liquid scintillation counter. Enzyme activity was expressed as pmol CO2 released/h/mg protein.

Assay [2] deals with epidermal COX-2 protein. Briefly: TPA-induced epidermal COX-2 protein expression (western blot). Format: in vivo, mouse. On the procedure:
FIG. 4. Inhibitory effect of Lupeol on TPA-induced epidermal ODC, iNOS and COX-2 protein expression in CD-1 mice: At different times after treatment, the animals were sacrificed, epidermal protein lysate was prepared, and ODC and COX-2 protein expression were determined. Equal loading of protein was confirmed by stripping the immunoblot and reprobing it for β-actin. The immunoblots shown here are representative of three independent experiments with similar results. The values above each lane indicate relative density of the band normalized to β-actin.
as §1
Epidermis from the whole skin was separated as described earlier (Katiyar et al., 1999) and was homogenized in ice-cold lysis buffer [50 mM Tris-HCl, 150 mM NaCl, 1 mM EGTA, 1 mM EDTA, 20 mM NaF, 100 mM Na3VO4, 0.5% NP-40, 1% Triton X-100, 1 mM PMSF (pH 7.4)] with freshly added protease inhibitor cocktail, Protease Inhibitor Cocktail Set III (Calbiochem, La Jolla, Calif., USA). The homogenate was then centrifuged at 14,000×g for 25 minutes at 4° C. and the supernatant (total cell lysate) was collected, aliquoted and stored at −80° C. For the preparation of nuclear lysate, 0.2 g of the epidermis was homogenized in 1 ml of ice-cold phosphate-buffered saline (pH 7.6) and centrifuged at 12,000×g for 5 min at 4° C. […] The protein content in the lysates was measured by DC BioRad assay (BioRad Laboratories, Hercules, Calif.) as per the manufacturer's protocol.
For western blot analysis, 40 μg of the protein was resolved over 8-12% polyacrylamide gels and transferred to a nitrocellulose membrane. […] This was followed by incubation with anti-mouse or anti-rabbit secondary antibody horse-radish peroxidase (Amersham Life Sciences, Inc., USA) for 1 h and then washed several times and detected by chemiluminescence ECL kit, (Amersham Life Sciences, Inc., USA) and autoradiography using XAR-5 film obtained from Eastman Kodak Co. (Rochester, N.Y., USA). […]

The subject of assay [3] is androgen-sensitive prostatic cancer cells (LNCaP). Briefly: Viability of LNCaP cells, MTT assay. Format: cell-based, human. The conditions noted are these: for cell death of LNCaP cells: 48 hours. On the procedure: FIG. 10 depicts effect of Lupeol on viability of androgen-sensitive prostatic cancer cells (LNCaP). Cells were treated with specified concentrations of Lupeol for 48 h, and cell viability was determined by MTT assay. The values are represented as the percent viable cells where vehicle-treated cells were regarded as 100% viable. Data represents mean value of percent viable cells±S.E of three independent experiments.
A general note: Formazan colour is commonly taken as a measure of viable cells.

For the compound `C=C(C)[C@@H]1CC[C@]2(C)CC[C@]3(C)[C@H](CC[C@@H]4[C@@]5(C)CC[C@H](O)C(C)(C)[C@@H]5CC[C@]43C)[C@@H]12` [Lupeol, Lup-20(29)-en-3β-ol], the entries for the “inhibition of TPA-caused induction of epidermal ODC activity” value in assay [1] (Lupeol 1 mg/animal topical 30 min prior to TPA) and in assay [1] (Lupeol 2 mg/animal topical 30 min prior to TPA) were 50% and 75%, respectively. Also, the “basal epidermal ODC activity” value in assay [1] (Lupeol alone (2 mg/animal)) is given as “without any effect”. Moreover, the “inhibition in TPA-caused increased epidermal COX-2 protein expression” value in assay [2] (Lupeol 1 mg/animal) was determined as 40%. Also, in assay [2] (Lupeol 2 mg/animal), the “TPA-induced COX-2 protein level” value is listed as “restored the level of TPA-induced COX-2 protein almost to its basal level”. The “epidermal COX-2 protein expression after Lupeol alone” value in assay [2] (Lupeol alone 2 mg) is reported as “did not produce any change”. Besides, the “cell death of LNCaP cells” value in assay [3] (40-60 μM Lupeol) is on record as 75-90%; in assay [3] (Lupeol up to 30 μM) it was 70%. Moreover, the “cell viability of LNCaP cells” value in assay [3] (Lupeol 5-30 μM, 48 and 72 h, time and dose dependent) was “significant inhibition of cell viability”.
